Source: patent publication US11000033B2, “Ketone or oxime compound, and herbicide” (NISSAN CHEMICAL CORPORATION, priority 2014, dated 2021)

What was measured:
Assay type in all cases: in vivo
[1] = system: Echinochloa oryzacola Vasing.; assay: Test Example 1: herbicidal activity, application before weed generation in submerged conditions (symbol A); conditions: application herbicide amount 320 g/ha
In short: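 Scores run 0 to 5 by herbicidal ratio, with 5 meaning 90% or more and 0 meaning 5% or lower, read 3 weeks after treatment. Compound was applied as a diluted emulsion to the water surface of submerged alluvial-soil pots on the day weed seeds were sown.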

transplanted rice plant = assay: Test Example 1: effect on crop, application before weed generation in submerged conditions (symbol a); conditions: application herbicide amount 320 g/ha
In short: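 Alluvial soil pots flooded to 4 cm water, sown with Echinochloa oryzacola, Scirpus juncoides and Monochoria vaginalis, then transplanted with 2.5 leaf stage rice seedlings; pre-emergence application. Greenhouse 25° C. to 30° C.; scored 0–5 by herbicidal ratio 3 weeks after application.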

[2] = system: Echinochloa crus-galli var. crus-galli; assay: Test Example 3: herbicidal effect by foliage application, Wagner pot (symbol H); conditions: application herbicide amount 320 g/ha
In short: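 Scoring took place 3 weeks after application, using fixed criteria. Plants had been raised from seed for 14 days at 25 to 30 °C in submerged alluvial soil before a diluted emulsion of the test compound was sprayed uniformly on the leaves.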

Setaria viridis [3] = assay: Test Example 4: herbicidal effect by soil treatment (symbol G); conditions: application herbicide amount 320 g/ha
In short: (§1)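 Seeds were sown in sterilized diluvial soil, covered with about 1.5 cm of soil, and the soil surface was sprayed with a water-diluted emulsion of the compound at a predetermined rate. Plants grew in a greenhouse at 25° C. to 30° C.; effects were scored visually 3 weeks after application.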

Lolium multiflorum Lam. = assay: Test Example 4: herbicidal effect by soil treatment (symbol K); conditions: application herbicide amount 320 g/ha
In short: as §1

Amaranthus retroflexus [4] = assay: Test Example 4: herbicidal effect by soil treatment (symbol N); conditions: application herbicide amount 320 g/ha
In short: as §1

Stellaria media [5] = assay: Test Example 4: herbicidal effect by soil treatment (symbol P); conditions: application herbicide amount 320 g/ha
In short: as §1

wheat [6] = assay: Test Example 4: effect on crop by soil treatment (symbol e); conditions: application herbicide amount 320 g/ha
In short: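 Greenhouse culture at 25° C. to 30° C. followed sowing of seed in spots on sterilized diluvial soil with a soil cover close to 1.5 cm thick.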

Setaria viridis [7] = assay: Test Example 5: herbicidal effect by foliage application, plastic box (symbol G); conditions: 320 g/ha, 3 weeks after application
In short: (§2)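 After sowing into sterilized diluvial soil and growing two weeks under glass at 25° C. to 30° C., seedlings receive a uniform foliar spray of diluted emulsion. Damage is judged visually three weeks on.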

Avena fatua = assay: Test Example 5: herbicidal effect by foliage application, plastic box (symbol I); conditions: 320 g/ha, 3 weeks after application
In short: as §2

Abutilon theophrasti = assay: Test Example 5: herbicidal effect by foliage application, plastic box (symbol M); conditions: 320 g/ha, 3 weeks after application
In short: as §2

Amaranthus retroflexus [8] = assay: Test Example 5: herbicidal effect by foliage application, plastic box (symbol N); conditions: 320 g/ha, 3 weeks after application
In short: as §2

Stellaria media [9] = assay: Test Example 5: herbicidal effect by foliage application, plastic box (symbol P); conditions: 320 g/ha, 3 weeks after application
In short: as §2

wheat [10] = assay: Test Example 5: effect on crop by foliage application, plastic box (symbol e); conditions: 320 g/ha, 3 weeks after application
In short: (§3)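 Greenhouse culture at 25° C. to 30° C. followed spot-like sowing into sterilized diluvial soil, with seed covered by roughly 1.5 cm of soil.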

beet = assay: Test Example 5: effect on crop by foliage application, plastic box (symbol f); conditions: 320 g/ha, 3 weeks after application
In short: as §3

SMILES | Herbicidal effect grade, A: Echinochloa oryzacola Vasing. [1] | Effect grade on crop, a: transplanted rice plant (transplanted rice plant) | herbicidal effect on H (Echinochloa crus-galli var. crus-galli), grade 0-5 [2] | G: Setaria viridis, herbicidal effect grade (Setaria viridis [3]) | K: Lolium multiflorum Lam., herbicidal effect grade (Lolium multiflorum Lam.) | N: Amaranthus retroflexus, herbicidal effect grade (Amaranthus retroflexus [4]) | P: Stellaria media, herbicidal effect grade (Stellaria media [5]) | e: wheat, effect on crop grade (wheat [6]) | G: Setaria viridis, herbicidal effect grade (Setaria viridis [7]) | I: Avena fatua, herbicidal effect grade (Avena fatua) | M: Abutilon theophrasti, herbicidal effect grade (Abutilon theophrasti) | N: Amaranthus retroflexus, herbicidal effect grade (Amaranthus retroflexus [8]) | P: Stellaria media, herbicidal effect grade (Stellaria media [9]) | e: wheat, effect on crop grade (wheat [10]) | f: beet, effect on crop grade (beet)
C=CC(=O)CC1CC(O)=C(c2c(C)cc(C)cc2C)C1=O (stereo not drawn) [2-031] | 4 (Herbicidal ratio of 70% or higher and lower than 90%) | 5 (Herbicidal ratio of 90% or more (almost completely withered)) | 5 (Herbicidal ratio of 90% or more (almost completely withered)) | 5 (Herbicidal ratio of 90% or more (almost completely withered)) | 5 (Herbicidal ratio of 90% or more (almost completely withered)) | 0 (Herbicidal ratio of 5% or lower (almost no effect)) | 0 (Herbicidal ratio of 5% or lower (almost no effect)) | 3 (Herbicidal ratio of 40% or higher and lower than 70%) | 5 (Herbicidal ratio of 90% or more (almost completely withered)) | 5 (Herbicidal ratio of 90% or more (almost completely withered)) | 0 (Herbicidal ratio of 5% or lower (almost no effect)) | 0 (Herbicidal ratio of 5% or lower (almost no effect)) | 0 (Herbicidal ratio of 5% or lower (almost no effect)) | 0 (Herbicidal ratio of 5% or lower (almost no effect)) | 0 (Herbicidal ratio of 5% or lower (almost no effect))
CON=C(C)CC1CC(O)=C(c2c(C)cc(C)cc2OC)C1=O (stereo not drawn) [6-037, 3-hydroxy-2-(2-methoxy-4,6-dimethylphenyl)-5-{2-(methoxyimino)propyl}cyclopent-2-enone] | 5 (Herbicidal ratio of 90% or more (almost completely withered)) | 5 (Herbicidal ratio of 90% or more (almost completely withered)) | 5 (Herbicidal ratio of 90% or more (almost completely withered)) | 5 (Herbicidal ratio of 90% or more (almost completely withered)) | 5 (Herbicidal ratio of 90% or more (almost completely withered)) | 3 (Herbicidal ratio of 40% or higher and lower than 70%) | 0 (Herbicidal ratio of 5% or lower (almost no effect)) | 5 (Herbicidal ratio of 90% or more (almost completely withered)) | 5 (Herbicidal ratio of 90% or more (almost completely withered)) | 5 (Herbicidal ratio of 90% or more (almost completely withered)) | 5 (Herbicidal ratio of 90% or more (almost completely withered)) | 5 (Herbicidal ratio of 90% or more (almost completely withered)) | 4 (Herbicidal ratio of 70% or higher and lower than 90%) | 5 (Herbicidal ratio of 90% or more (almost completely withered)) | 3 (Herbicidal ratio of 40% or higher and lower than 70%)
CON=C(C)CC1CC(O)=C(c2c(C)cc(-c3ccc(C)cc3)cc2C)C1=O (mixture of isomers) [6-018] | 5 (Herbicidal ratio of 90% or more (almost completely withered)) | 5 (Herbicidal ratio of 90% or more (almost completely withered)) | 5 (Herbicidal ratio of 90% or more (almost completely withered)) | 5 (Herbicidal ratio of 90% or more (almost completely withered)) | 5 (Herbicidal ratio of 90% or more (almost completely withered)) | 0 (Herbicidal ratio of 5% or lower (almost no effect)) | 0 (Herbicidal ratio of 5% or lower (almost no effect)) | 0 (Herbicidal ratio of 5% or lower (almost no effect)) | 5 (Herbicidal ratio of 90% or more (almost completely withered)) | 4 (Herbicidal ratio of 70% or higher and lower than 90%) | 0 (Herbicidal ratio of 5% or lower (almost no effect)) | 0 (Herbicidal ratio of 5% or lower (almost no effect)) | 3 (Herbicidal ratio of 40% or higher and lower than 70%) | 2 (Herbicidal ratio of 20% or higher and lower than 40%) | 1 (Herbicidal ratio of 5% or higher and lower than 20%)
CON=C(C)CC1CC(O)=C(c2c(C)cc(-c3ccc(Cl)nc3)cc2C)C1=O (mixture of isomers) [6-035] | 5 (Herbicidal ratio of 90% or more (almost completely withered)) | 5 (Herbicidal ratio of 90% or more (almost completely withered)) | 5 (Herbicidal ratio of 90% or more (almost completely withered)) | 5 (Herbicidal ratio of 90% or more (almost completely withered)) | 5 (Herbicidal ratio of 90% or more (almost completely withered)) | 0 (Herbicidal ratio of 5% or lower (almost no effect)) | 3 (Herbicidal ratio of 40% or higher and lower than 70%) | 0 (Herbicidal ratio of 5% or lower (almost no effect)) | 5 (Herbicidal ratio of 90% or more (almost completely withered)) | 5 (Herbicidal ratio of 90% or more (almost completely withered)) | 4 (Herbicidal ratio of 70% or higher and lower than 90%) | 5 (Herbicidal ratio of 90% or more (almost completely withered)) | 3 (Herbicidal ratio of 40% or higher and lower than 70%) | 4 (Herbicidal ratio of 70% or higher and lower than 90%) | 0 (Herbicidal ratio of 5% or lower (almost no effect))
CON=C(C)CC1CC(O)=C(c2c(C)cc(Br)cc2C)C1=O (stereo not drawn) [6-003] | 5 (Herbicidal ratio of 90% or more (almost completely withered)) | 5 (Herbicidal ratio of 90% or more (almost completely withered)) | 5 (Herbicidal ratio of 90% or more (almost completely withered)) | 5 (Herbicidal ratio of 90% or more (almost completely withered)) | 5 (Herbicidal ratio of 90% or more (almost completely withered)) | 3 (Herbicidal ratio of 40% or higher and lower than 70%) | 0 (Herbicidal ratio of 5% or lower (almost no effect)) | 0 (Herbicidal ratio of 5% or lower (almost no effect)) | 5 (Herbicidal ratio of 90% or more (almost completely withered)) | 5 (Herbicidal ratio of 90% or more (almost completely withered)) | 3 (Herbicidal ratio of 40% or higher and lower than 70%) | 0 (Herbicidal ratio of 5% or lower (almost no effect)) | 2 (Herbicidal ratio of 20% or higher and lower than 40%) | 0 (Herbicidal ratio of 5% or lower (almost no effect)) | 0 (Herbicidal ratio of 5% or lower (almost no effect))
